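Where inhibition never reached the appropriate level, the endpoint shown equals the highest concentration tested. Otherwise, values were interpolated linearly from a five-concentration, 48-hour dose response in 96-well plates. The concentration for 50% growth inhibition is given as GI50.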 Active and inactive are the calls of the source. Rule as the data show it: active = GI50 up to about 1.1 µM and inactive = higher.
What was measured:
Assay in all cases: growth of human tumour cells (NCI), 48 h
[1] = tested on: M14
[2] = tested on: OVCAR-5
[3] = tested on: SK-MEL-2
[4] = tested on: K562
[5] = tested on: UO-31
[6] = tested on: RPMI-8226
[7] = tested on: HT-29
[8] = tested on: IGROV-1
[9] = tested on: OVCAR-4
[10] = tested on: SF-268
[11] = tested on: NCI-H226
[12] = tested on: SW-620
[13] = tested on: SF-539
[14] = tested on: SK-OV-3
[15] = tested on: SR
[16] = tested on: CAKI-1
[17] = tested on: MDA-MB-231
[18] = tested on: Hs-578T
[19] = tested on: DU-145
[20] = tested on: T47D

Measured: GI50

O=c1ccc2ccccc2c2ccccc12
inactive: [1] 2.42 µM | [2] 2.82 µM | [3] 3.43 µM | [4] 3.7 µM | [5] 3.81 µM | [6] 2.23 µM | [7] 2.93 µM | [8] 6.12 µM | [9] 8.07 µM | [10] 2.79 µM | [11] 4.27 µM | [12] 3.3 µM | [13] 1.97 µM | [14] 3.6 µM | [15] 1.52 µM | [16] 2.81 µM

O=C1C(c2ccccc2)=C(c2ccccc2)C(c2ccc(-c3ccc(C4=C(c5ccccc5)C(=O)C(c5ccccc5)=C4c4ccccc4)cc3)cc2)=C1c1ccccc1
inactive: [1] > 100 µM | [2] > 100 µM | [3] > 100 µM | [4] > 100 µM | [5] > 100 µM | [6] 46.9 µM | [7] > 100 µM | [8] > 100 µM | [9] > 100 µM | [10] > 100 µM | [11] > 100 µM | [12] > 100 µM | [13] > 100 µM | [14] > 100 µM | [15] > 100 µM | [16] > 100 µM

CC(=O)Oc1c(OC(C)C)cc(=O)n2ccsc12
inactive: [1] > 100 µM | [2] > 100 µM | [3] > 100 µM | [4] 42.8 µM | [5] > 100 µM | [17] > 100 µM | [6] 29.4 µM | [7] > 100 µM | [8] 92.7 µM | [9] > 100 µM | [10] > 100 µM | [11] > 100 µM | [18] > 100 µM | [12] 82 µM | [13] > 100 µM | [19] > 100 µM | [14] > 100 µM | [16] > 100 µM

O=S1(=O)OCCCOS(=O)(=O)C1Br
inactive: [1] > 100 µM | [20] > 100 µM | [2] > 100 µM | [3] > 100 µM | [5] > 100 µM | [6] > 100 µM | [7] > 100 µM | [9] > 100 µM | [10] > 100 µM | [11] > 100 µM | [12] > 100 µM | [13] > 100 µM | [19] > 100 µM | [14] > 100 µM | [15] > 100 µM | [16] > 100 µM

Cc1ccc2c(c1)CN1c3ccc(C)cc3CN2C1c1ccccc1O
inactive: [1] > 100 µM | [2] 18.6 µM | [3] 48.9 µM | [4] 34.7 µM | [5] 24.9 µM | [6] 19.5 µM | [7] 42 µM | [8] 79.4 µM | [9] 57 µM | [10] 81.7 µM | [11] 49.5 µM | [12] 61.9 µM | [13] 49 µM | [14] > 100 µM | [15] 11.7 µM | [16] > 100 µM

CC1OC(CC(=O)O)Cc2c(O)c3c(c(O)c21)C(=O)C=C(C1=CC(=O)c2c(O)c4c(c(O)c2C1=O)CC(CC(=O)O)OC4C)C3=O (centres undefined)
inactive: [1] 15 µM | [2] 43.8 µM | [3] 21.2 µM | [4] 9.4 µM | [5] 47.2 µM | [6] 12.4 µM | [7] 18.5 µM | [8] 30.7 µM | [9] 17.3 µM | [10] 32 µM | [11] 50.8 µM | [12] 7.4 µM | [13] 19.1 µM | [14] > 100 µM | [15] 3.69 µM | [16] 29.1 µM

C=CC[C@H]1O[Si](C(C)(C)C)(C(C)(C)C)[C@H](C)[C@H]1C
inactive: [1] > 100 µM | [20] > 100 µM | [2] > 100 µM | [3] > 100 µM | [4] > 100 µM | [5] > 100 µM | [17] > 100 µM | [6] > 10 µM | [7] > 100 µM | [8] > 100 µM | [9] > 100 µM | [11] > 100 µM | [12] > 100 µM | [13] > 100 µM | [14] > 100 µM | [15] 59.6 µM | [16] > 100 µM

COC(=O)c1c(O)ccc2c1c1c(n2Cc2cc(OC)cc(OC)c2)C(=O)c2ccccc2C1
inactive: [1] 37.8 µM | [2] 18.4 µM | [3] 50.6 µM | [4] 66.8 µM | [5] 63.4 µM | [17] 24 µM | [6] 7.82 µM | [7] 11.7 µM | [8] 30.3 µM | [9] 11.2 µM | [10] 31.1 µM | [11] 93.3 µM | [18] 87.3 µM | [12] 51.8 µM | [13] 50.6 µM | [19] 53.3 µM | [14] 29 µM | [15] 13 µM | [16] 21.1 µM
